Target: T1, Delta-5-Desaturase (D5D), membrane preparations of D5D-overexpressing HEK293 6E cells (Homo sapiens, UniProt O60427)
T1 construct: expressed in transfected cells; host or cells: HEK293 6E cells (membrane preparation)
Assay: In vitro measurement of Delta-5-Desaturase inhibitory activity using DGLA-CoA and Arachidonyl-CoA mass spectrometric assays
Assay type: biochemical
Details: D5D membrane 10 μg/mL, one-hour incubation, average of at least two independent runs
Protocol: In Vitro Measurement of Delta-5-Desaturase Inhibitory Activity Using DGLA-CoA and Arachidonyl-CoA Mass Spectrometric Assays Membrane preparations of D5D-overexpressing HEK293 6E cells were prepared in which the total protein concentration was 5.6 mg/mL. Stock D5D membrane preparations were diluted in D5D assay buffer (25 mM 2-amino-2-(hydroxymethyl)-1,3-propanediol, pH 7.5 containing 10 mM MgCl2, 1 mM octyl glucoside (SigmaAldrich O-8001), 1 mM tris(2-carboxyethyl)phosphine hydrochloride (SigmaAldrich 646547)) to a final D5D membrane concentration of 10 μg/mL in an assay plate containing serially diluted test compounds. To 15 μL of this D5D preparation was added 15 μL of a substrate solution (0.25 mM NADH (nicotinamide adenine dinucleotide, Roche Diag. 10107735001), 0.25 mM adenosine triphosphate (SigmaAldrich A-3377), 0.05 mM coenzyme A hydrate (SigmaAldrich C-4282), and 0.01 mM DGLA (dihomo-g-linolenic acid, Sigma E-4504) in the same D5D assay buffer. After one-hour incubation at ambient temperature acetonitrile (30 μL) was added to quench the reaction and plates were centrifuged for 10 min @ 3,000 rpm. Mass spectrometric analysis involved a Rapidfire 360 SPE system coupled to an ABSciex API4000 Triple Quadrupole mass spectrometer using a C18 SPE cartridge (G9203-80105) with ionization in negative mode (solvent A=100% water; solvent B=100% acetonitrile, each solvent containing 5 mM ammonium acetate). DGLA-CoA and Arachidonyl-CoA were detected by multiple reaction monitoring (MRM) of the doubly charged parent ions at m/z 526.6 and 525.6, respectively. […] Sx is value from unknown sample, So is value from DMSO alone and Sc is value from no enzyme well. For CRC analysis, the % of inhibitions were analysed with 4 Parameter Logistic Model or Sigmoidal Dose-Response Model using XLfit (IDBS, Guilford, UK). The potency of the test item was expressed as IC50 nM, corresponding to the test item concentration able to inhibit the 50% of the enzyme maximal response. IC50 values were averaged values determined by at least two independent runs. The results presented in Table 15 have been generated with the in vitro assay described above. This assay may be used to test any of the compounds described herein to assess and characterize a compound's ability to inhibit D5D.

T1 sequence (O60427 whole entry, species assumed): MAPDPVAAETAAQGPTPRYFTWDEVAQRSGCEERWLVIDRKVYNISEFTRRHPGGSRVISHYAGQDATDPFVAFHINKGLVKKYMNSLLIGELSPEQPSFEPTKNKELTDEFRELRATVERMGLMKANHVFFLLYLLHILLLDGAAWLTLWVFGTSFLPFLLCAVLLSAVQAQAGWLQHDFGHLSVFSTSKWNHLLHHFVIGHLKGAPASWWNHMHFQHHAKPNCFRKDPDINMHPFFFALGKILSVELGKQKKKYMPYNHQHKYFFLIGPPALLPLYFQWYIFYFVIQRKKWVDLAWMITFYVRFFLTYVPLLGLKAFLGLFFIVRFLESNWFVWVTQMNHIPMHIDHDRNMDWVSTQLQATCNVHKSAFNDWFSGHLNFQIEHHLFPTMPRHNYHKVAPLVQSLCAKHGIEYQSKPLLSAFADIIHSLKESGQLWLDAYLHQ

Point of comparison: `Cc1nn2c(=O)c(-c3cnn(CCC(F)(F)F)c3)c(C(F)(F)F)nc2s1` [Example 20, 2-methyl-7-(trifluoromethyl)-6-[1-(3,3,3-trifluoropropyl)-1H-pyrazol-4-yl]-5H-[1,3,4]thiadiazolo[3,2-a]pyrimidin-5-one], IC50 32.9 nM. Against it:
- Cc1cn2c(=O)c(-c3cnn(CC4CC4(F)F)c3)c(C(F)(F)F)nc2[nH]1 (racemic) [Example 76, 6-{1-[(2,2-difluorocyclopropyl)methyl]-1H-pyrazol-4-yl}-2-methyl-7-(trifluoromethyl)-1H,5H-imidazo[1,2-a]pyrimidin-5-one] — within 1.5-fold, 26 nM
- Cc1cn2c(=O)c(-c3cnn(C[C@H]4CC4(F)F)c3)c(C(F)(F)F)nc2[nH]1 (single isomer, unassigned) [Example 107] — 2.6-fold lower, 12.5 nM
- Cc1cn2c(=O)c(-c3cnn(C[C@@H]4CC4(F)F)c3)c(C(F)(F)F)nc2[nH]1 (single isomer, unassigned) [Example 108] — 2.7-fold lower, 12 nM
- Cc1cn2c(=O)c(-c3cnn(C[C@H]4CC4(F)F)c3)c(C(F)(F)F)nc2n1C (single isomer, unassigned) [Example 109] — within 1.5-fold, 28.6 nM
- Cc1cn2c(=O)c(-c3cnn(C[C@@H]4CC4(F)F)c3)c(C(F)(F)F)nc2n1C (single isomer, unassigned) [Example 110] — within 1.5-fold, 24.1 nM
- Cc1nn2c(=O)c(-c3cnn(C[C@H]4CC4(F)F)c3)c(C(F)(F)F)nc2s1 (single isomer, unassigned) [Example 111] — 14-fold higher, 452 nM
- Cc1nn2c(=O)c(-c3cnn(C[C@@H]4CC4(F)F)c3)c(C(F)(F)F)nc2s1 (single isomer, unassigned) [Example 112] — 26-fold higher, 861 nM
- C[C@H]1Cn2c(nc(C(F)(F)F)c(-c3cnn(CC(F)(F)C(F)(F)F)c3)c2=O)S1 (single isomer, unassigned) [Example 113] — 2.8-fold lower, 11.8 nM
- C[C@@H]1Cn2c(nc(C(F)(F)F)c(-c3cnn(CC(F)(F)C(F)(F)F)c3)c2=O)S1 (single isomer, unassigned) [Example 114] — 1.5-fold higher, 49.4 nM
- Cc1cn2c(=O)c(-c3cnn(CCC(F)(F)F)c3)c(C(F)(F)F)nc2n1C[C@@H]1CC1(F)F (single isomer, unassigned) [Example 115] — within 1.5-fold, 39 nM
- Cc1cn2c(=O)c(-c3cnn(CCC(F)(F)F)c3)c(C(F)(F)F)nc2n1C[C@H]1CC1(F)F (single isomer, unassigned) [Example 116] — 36-fold higher, 1170 nM
- O=c1c(-c2cnn(CC(F)(F)C(F)(F)F)c2)c(C(F)(F)F)nc2sccn12 [Example 1, 6-[1-(2,2,3,3,3-pentafluoropropyl)-1H-pyrazol-4-yl]-7-(trifluoromethyl)-5H-[1,3]thiazolo[3,2-a]pyrimidin-5-one] — 8.7-fold lower, 3.8 nM
- CN1C(=O)Cn2c1nc(C(F)(F)F)c(-c1cnn(CC(F)(F)C(F)(F)F)c1)c2=O [Example 3, 1-methyl-6-[1-(2,2,3,3,3-pentafluoropropyl)-1H-pyrazol-4-yl]-7-(trifluoromethyl)-1H,2H,3H,5H-imidazo[1,2-a]pyrimidine-2,5-dione] — within 1.5-fold, 25.7 nM
- Cc1cn2c(=O)c(-c3cnn(CC(F)(F)C(F)(F)F)c3)c(C(F)(F)F)nc2s1 [Example 4, 2-methyl-6-[1-(2,2,3,3,3-pentafluoropropyl)-1H-pyrazol-4-yl]-7-(trifluoromethyl)-5H-[1,3]thiazolo[3,2-a]pyrimidin-5-one] — 1.8-fold lower, 17.8 nM
- Cc1csc2nc(C(F)(F)F)c(-c3cnn(CC(F)(F)C(F)(F)F)c3)c(=O)n12 [Example 5, 3-methyl-6-[1-(2,2,3,3,3-pentafluoropropyl)-1H-pyrazol-4-yl]-7-(trifluoromethyl)-5H-[1,3]thiazolo[3,2-a]pyrimidin-5-one] — 15-fold higher, 482 nM
- O=c1c(-c2cnn(CC(F)(F)C(F)(F)F)c2)c(C(F)(F)F)nc2scc(C(F)(F)F)n12 [Example 6, 6-[1-(2,2,3,3,3-pentafluoropropyl)-1H-pyrazol-4-yl]-3,7-bis(trifluoromethyl)-5H-[1,3]thiazolo[3,2-a]pyrimidin-5-one] — 8.2-fold higher, 271 nM
- O=c1c(-c2cnn(CC(F)(F)C(F)(F)F)c2)c(C(F)(F)F)nc2sc(F)cn12 [Example 7, 2-fluoro-6-[1-(2,2,3,3,3-pentafluoropropyl)-1H-pyrazol-4-yl]-7-(trifluoromethyl)-5H-[1,3]thiazolo[3,2-a]pyrimidin-5-one] — 25-fold lower, 1.3 nM
- O=c1c(-c2cnn(CCC(F)(F)F)c2)c(C(F)(F)F)nc2sccn12 [Example 8, 7-(trifluoromethyl)-6-[1-(3,3,3-trifluoropropyl)-1H-pyrazol-4-yl]-5H-[1,3]thiazolo[3,2-a]pyrimidin-5-one] — 7.2-fold lower, 4.6 nM
- O=c1c(-c2cnn(CC(F)(F)C(F)(F)F)c2)c(C(F)(F)F)nc2sc(Cl)cn12 [Example 9, 2-chloro-6-[1-(2,2,3,3,3-pentafluoropropyl)-1H-pyrazol-4-yl]-7-(trifluoromethyl)-5H-[1,3]thiazolo[3,2-a]pyrimidin-5-one] — 5.1-fold lower, 6.4 nM
- COCc1nn2c(=O)c(-c3cnn(CCC(F)(F)F)c3)c(C(F)(F)F)nc2s1 [Example 10, 2-(methoxymethyl)-7-(trifluoromethyl)-6-[1-(3,3,3-trifluoropropyl)-1H-pyrazol-4-yl]-5H-[1,3,4]thiadiazolo[3,2-a]pyrimidin-5-one] — within 1.5-fold, 27.4 nM
- O=c1c(-c2cnn(CC(F)(F)C(F)(F)F)c2)c(C(F)(F)F)nc2sc(C3CC3)nn12 [Example 11, 2-cyclopropyl-6-[1-(2,2,3,3,3-pentafluoropropyl)-1H-pyrazol-4-yl]-7-(trifluoromethyl)-5H-[1,3,4]thiadiazolo[3,2-a]pyrimidin-5-one] — 4-fold higher, 133 nM
- O=c1c(-c2cnn(CCC(F)(F)F)c2)c(C(F)(F)F)nc2sc(C3CC3)nn12 [Example 12, 2-cyclopropyl-7-(trifluoromethyl)-6-[1-(3,3,3-trifluoropropyl)-1H-pyrazol-4-yl]-5H-[1,3,4]thiadiazolo[3,2-a]pyrimidin-5-one] — 7.5-fold higher, 248 nM
- Cc1nn2c(=O)c(-c3cnn(CC(F)(F)C(F)(F)F)c3)c(C(F)(F)F)nc2n1C [Example 13, 2,3-dimethyl-6-[1-(2,2,3,3,3-pentafluoropropyl)-1H-pyrazol-4-yl]-5-(trifluoromethyl)-3H,7H-[1,2,4]triazolo[1,5-a]pyrimidin-7-one] — 7.6-fold higher, 249 nM
- Cc1nn2c(=O)c(-c3cnn(CCC(F)(F)F)c3)c(C(F)(F)F)nc2n1C [Example 14, 2,3-dimethyl-5-(trifluoromethyl)-6-[1-(3,3,3-trifluoropropyl)-1H-pyrazol-4-yl]-3H,7H-[1,2,4]triazolo[1,5-a]pyrimidin-7-one] — 43-fold higher, 1430 nM
- CCc1nc2sc(C)nn2c(=O)c1-c1cnn(CC(F)(F)C(F)(F)F)c1 [Example 15, 7-ethyl-2-methyl-6-[1-(2,2,3,3,3-pentafluoropropyl)-1H-pyrazol-4-yl]-5H-[1,3,4]thiadiazolo[3,2-a]pyrimidin-5-one] — 46-fold higher, 1510 nM
- Cc1cc2nc(C(F)(F)F)c(-c3cnn(CC(F)(F)C(F)(F)F)c3)c(=O)n2n1C [Example 16, 1,2-dimethyl-6-[1-(2,2,3,3,3-pentafluoropropyl)-1H-pyrazol-4-yl]-5-(trifluoromethyl)-1H,7H-pyrazolo[1,5-a]pyrimidin-7-one] — 290-fold higher, 9410 nM
- Cn1ccc2nc(C(F)(F)F)c(-c3cnn(CC(F)(F)C(F)(F)F)c3)c(=O)n21 [Example 17, 1-methyl-6-[1-(2,2,3,3,3-pentafluoropropyl)-1H-pyrazol-4-yl]-5-(trifluoromethyl)-1H,7H-pyrazolo[1,5-a]pyrimidin-7-one] — 11-fold higher, 363 nM
- Cc1cn(C)n2c(=O)c(-c3cnn(CC(F)(F)C(F)(F)F)c3)c(C(F)(F)F)nc12 [Example 18, 1,3-dimethyl-6-[1-(2,2,3,3,3-pentafluoropropyl)-1H-pyrazol-4-yl]-5-(trifluoromethyl)-1H,7H-pyrazolo[1,5-a]pyrimidin-7-one] — 110-fold higher, 3630 nM
- O=c1c(-c2cnn(CC(F)(F)C(F)(F)F)c2)c(C(F)(F)F)nc2n1CCC2 [Example 19, 3-[1-(2,2,3,3,3-pentafluoropropyl)-1H-pyrazol-4-yl]-2-(trifluoromethyl)-4H,6H,7H,8H-pyrrolo[1,2-a]pyrimidin-4-one] — within 1.5-fold, 46.3 nM
- O=c1c(-c2cnn(CCC(F)(F)F)c2)c(C(F)(F)F)nc2n1CCC2 [Example 21, 2-(trifluoromethyl)-3-[1-(3,3,3-trifluoropropyl)-1H-pyrazol-4-yl]-4H,6H,7H,8H-pyrrolo[1,2-a]pyrimidin-4-one] — 7.1-fold higher, 235 nM
- O=c1c(-c2cnn(CC(F)(F)C(F)(F)F)c2)c(C(F)(F)F)nc2n1CCS2 [Example 22, 6-[1-(2,2,3,3,3-pentafluoropropyl)-1H-pyrazol-4-yl]-7-(trifluoromethyl)-2H,3H,5H-[1,3]thiazolo[3,2-a]pyrimidin-5-one] — 2.3-fold lower, 14.3 nM
